Measurements from ChEMBL document CHEMBL6182831, “Thiazole-fused androstenone and ethisterone derivatives: potent β- and γ-actin cytoskeleton inhibitors to treat melanoma tumors” (RSC Med Chem, 2025).
pIC50: −log10 of the molar value. Active and inactive are the calls of the source. The calls are words filed in the database; no cut-off is given here.

Columns and labels:
LOX IMVI [1] = assay: Upregulation of PARVB mRNA expression in human LOX IMVI cells at 2 uM measured for 2 hrs by qPCR analysis; type: functional, cell-based
SK-MEL-28 [2] = assay: Inhibition of cell migration in human SK-MEL-28 cells at 1.2 uM incubated for 24 hrs by wound healing assay; type: functional, cell-based
[3] = Toxicity in C57BL/6 mouse assessed as change in total bilirubin level at 40 mg/kg, ip administered once daily and measured up to 20 days; type: organism-based; details: in vivo, 480 h, time < 20 day
LOX IMVI [4] = assay: Cytotoxicity against human LOX IMVI cells assessed as inhibition of cell growth incubated for 24 hrs by resazurin staining based analysis; type: functional
B16-F10 [5] = assay: Antitumor activity against mouse B16-F10 cells implanted in C57BL/6 mouse assessed as reduction of tumor weight at 40 mg/kg, ip administered once daily from 6 to 9 days and every alternate days till 18; type: functional, organism-based; details: time 13.0 day
SK-MEL-28 [6] = assay: Effect on PARVB level in human SK-MEL-28 cells at 2 uM measured after 24 hrs by Western blot analysis; type: functional, cell-based
SK-MEL-28 [7] = assay: Cytotoxicity against human SK-MEL-28 cells assessed as inhibition of cell growth incubated for 24 hrs by resazurin staining based analysis; type: functional; details: SK-MEL-28, 24 h
[8] = Toxicity in C57BL/6 mouse assessed as change in creatinine level at 40 mg/kg, ip administered once daily and measured up to 20 days; type: organism-based; details: in vivo, 480 h, time < 20 day
[9] = Toxicity in C57BL/6 mouse assessed as change in albumin level at 40 mg/kg, ip administered once daily and measured up to 20 days; type: organism-based; details: in vivo, 480 h, time < 20 day
B16-F10 [10] = assay: Antitumor activity against mouse B16-F10 cells implanted in C57BL/6 mouse assessed as reduction of tumor weight at 40 mg/kg, ip administered once daily from 6 to 12 days and every alternate days till 18; type: functional, organism-based; details: time 13.0 day
SK-MEL-28 [11] = assay: Effect on ACTB mRNA expression in human SK-MEL-28 cells at 2 uM measured after 24 hrs by qRT-PCR analysis; type: functional, cell-based
B16-F10 [12] = assay: Inhibition of colony formation in mouse B16-F10 cells at 3 uM incubated for 6 days by crystal violet staining based analysis; type: functional; details: B16-F10, 144 h, time 6 day
B16-F10 [13] = assay: Inhibition of colony formation in mouse B16-F10 cells at 6 uM incubated for 6 days by crystal violet staining based analysis; type: functional; details: B16-F10, 144 h, time 6 day
[14] = Toxicity in C57BL/6 mouse assessed as change in ALT level at 40 mg/kg, ip administered once daily and measured up to 20 days; type: organism-based; details: in vivo, 480 h, time < 20 day
B16-F10 [15] = assay: Inhibition of cell adhesion in mouse B16-F10 cells assessed as reduction in number of adherent cells incubated for 1.5 hrs; type: functional, cell-based
SK-MEL-28 [16] = assay: Effect on ACTB level in human SK-MEL-28 cells at 2 uM measured after 24 hrs by Western blot analysis; type: functional, cell-based
B16-F10 [17] = assay: Antitumor activity against mouse B16-F10 cells implanted in C57BL/6 mouse assessed as inhibition of tumor growth at 40 mg/kg, ip administered once daily from 6 to 9 days and every alternate days till 18; type: functional, organism-based; details: time 13.0 day
SK-MEL-28 [18] = assay: Effect on ACTG1 mRNA expression in human SK-MEL-28 cells at 2 uM measured after 24 hrs by qRT-PCR analysis; type: functional, cell-based
SK-MEL-28 [19] = assay: Induction of cell cycle arrest in human SK-MEL-28 cells assessed as accumulation of cells at G2/M phase at 3 uM incubated for 24 hrs by PI staining based flow cytometry analysis; type: functional
[20] = Toxicity in C57BL/6 mouse assessed as change in BUN level at 40 mg/kg, ip administered once daily and measured up to 20 days; type: organism-based; details: in vivo, 480 h, time < 20 day
[21] = Toxicity in C57BL/6 mouse assessed as change in amylase level at 40 mg/kg, ip administered once daily and measured up to 20 days; type: organism-based; details: in vivo, 480 h, time < 20 day
[22] = Toxicity in C57BL/6 mouse assessed as animal survival at 40 mg/kg, ip administered once daily from 6 to 9 days and every alternate days till 19; type: organism-based; details: in vivo, time 14 day
B16-F10 [23] = assay: Inhibition of cell migration in mouse B16-F10 cells at 2 uM incubated for 24 hrs by wound healing assay; type: functional, cell-based
SK-MEL-28 [24] = assay: Downregulation of ACTB level in human SK-MEL-28 cells at 2 uM measured for 24 hrs by qRT-PCR analysis; type: functional, cell-based
SK-MEL-28 [25] = assay: Effect on ACTG1 level in human SK-MEL-28 cells at 2 uM measured after 24 hrs by Western blot analysis; type: functional, cell-based
B16-F10 [26] = assay: Inhibition of cell adhesion in mouse B16-F10 cells at 2.5 uM incubated for 1.5 hrs; type: functional, cell-based
SK-MEL-28 [27] = assay: Inhibition of cell adhesion in human SK-MEL-28 cells at 2.5 uM incubated for 1.5 hrs; type: functional, cell-based
[28] = Toxicity in C57BL/6 mouse assessed as change in body weight at 40 mg/kg, ip administered once daily and measured up to 20 days; type: organism-based; details: in vivo, 480 h, time < 20 day
[29] = Toxicity in C57BL/6 mouse assessed as animal survival at 40 mg/kg, ip administered once daily from 6 to 9 days and every alternate days till 18; type: organism-based; details: in vivo, time 13 day
SK-MEL-5 = assay: Cytotoxicity against human SK-MEL-5 cells assessed as inhibition of cell growth incubated for 24 hrs by resazurin staining based analysis; type: functional; details: SK-MEL-5, 24 h
SK-MEL-28 [30] = assay: Inhibition of cell adhesion in human SK-MEL-28 cells assessed as reduction in number of adherent cells incubated for 1.5 hrs; type: functional, cell-based
SK-MEL-25 = assay: Cytotoxicity against human SK-MEL-25 cells assessed as inhibition of cell growth incubated for 24 hrs by resazurin staining based analysis; type: functional; details: SK-MEL-25, 24 h
[31] = Toxicity in C57BL/6 mouse assessed as change in ALP level at 40 mg/kg, ip administered once daily and measured up to 20 days; type: organism-based; details: in vivo, 480 h, time < 20 day
SK-MEL-28 [32] = assay: Upregulation of PARVB mRNA expression in human SK-MEL-28 cells at 2 uM measured for 2 hrs by qPCR analysis; type: functional, cell-based
B16-F10 [33] = assay: Induction of cell cycle arrest in mouse B16-F10 cells assessed as accumulation of cells at G2/M phase at 3 uM incubated for 24 hrs by PI staining based flow cytometry analysis; type: functional
B16-F10 [34] = assay: Cytotoxicity against mouse B16-F10 cells assessed as inhibition of cell growth incubated for 24 hrs by resazurin staining based analysis; type: functional; details: B16-F10, 24 h
B16-F10 [35] = assay: Induction of apoptosis in mouse B16-F10 cells at 8 uM measured for 24 hrs by Annexin V FITC/PI staining based flow cytometry analysis; type: functional, cell-based
SK-MEL-28 [36] = assay: Inhibition of colony formation in human SK-MEL-28 cells at 6 uM incubated for 8 days by crystal violet staining based analysis; type: functional; details: SK-MEL-28, 192 h, time 8 day
SK-MEL-28 [37] = assay: Inhibition of colony formation in human SK-MEL-28 cells at 6 uM incubated for 6 days by crystal violet staining based analysis; type: functional; details: SK-MEL-28, 144 h, time 6 day
SK-MEL-28 [38] = assay: Inhibition of colony formation in human SK-MEL-28 cells at 3 uM incubated for 8 days by crystal violet staining based analysis; type: functional; details: SK-MEL-28, 192 h, time 8 day
B16-F10 [39] = assay: Inhibition of cell adhesion in mouse B16-F10 cells at 1.5 uM incubated for 1.5 hrs; type: functional, cell-based
SK-MEL-28 [40] = assay: Inhibition of colony formation in human SK-MEL-28 cells at 3 uM incubated for 6 days by crystal violet staining based analysis; type: functional; details: SK-MEL-28, 144 h, time 6 day
SK-MEL-28 [41] = assay: Inhibition of cell adhesion in human SK-MEL-28 cells at 1.5 uM incubated for 1.5 hrs; type: functional, cell-based
SK-MEL-28 [42] = assay: Inhibition of cell migration in human SK-MEL-28 cells at 1 uM incubated for 24 hrs by wound healing assay; type: functional, cell-based

Structure (SMILES) | Activity [3] | pIC50 (LOX IMVI [4]) | Activity (B16-F10 [5]) | pIC50 (SK-MEL-28 [7]) | Activity [8] | Activity [9] | Activity (B16-F10 [10]) | inhibition at 3 µM (B16-F10 [12]) [%] | inhibition at 6 µM (B16-F10 [13]) [%] | Activity [14] | inhibition (B16-F10 [15]) | TGI (B16-F10 [17]) | Activity (SK-MEL-28 [19]) | Activity [20] | Activity [21] | survival at 336 h [22] [%] | inhibition (B16-F10 [23]) | pIC50 (SK-MEL-5) | pIC50 (SK-MEL-25) | pIC50 (B16-F10 [34]) | further results
C#C[C@]1(O)CC[C@H]2[C@@H]3CC=C4c5sc(-c6ccc(O)c(O)c6)nc5CC[C@]4(C)[C@H]3CC[C@@]21C | Non-toxic | 5.36 | Active | 5.44 | Non-toxic | Non-toxic | Active | 100 | 100 | Non-toxic | Active | Active | Active | Non-toxic | Non-toxic | 80 | Active | 5.43 | 5.60 | 5.59 | Activity (LOX IMVI [1]): Active; inhibition (SK-MEL-28 [2]): Active; Activity (SK-MEL-28 [6]): Active; Activity (SK-MEL-28 [11]): Active; Activity (SK-MEL-28 [16]): Active; Activity (SK-MEL-28 [18]): Active; Activity (SK-MEL-28 [24]): Active; Activity (SK-MEL-28 [25]): Active; inhibition (B16-F10 [26]): Active; inhibition (SK-MEL-28 [27]): Active; Activity [28]: Non-toxic; survival at 312 h [29]: ~80%; inhibition (SK-MEL-28 [30]): Active; Activity [31]: Non-toxic; Activity (SK-MEL-28 [32]): Active; Activity (B16-F10 [33]): Active; Activity (B16-F10 [35]): Active
C#C[C@]1(O)CC[C@H]2[C@@H]3CC=C4c5sc(Nc6ccccc6)nc5CC[C@]4(C)[C@H]3CC[C@@]21C | Non-toxic | 5.80 |  | 5.77 | Non-toxic | Non-toxic | Active |  |  | Non-toxic |  |  |  | Non-toxic | Non-toxic | 10 |  | 5.62 | 5.80 | 5.57 | Activity [28]: Non-toxic; survival at 312 h [29]: ~80%; Activity [31]: Non-toxic
C#C[C@]1(O)CC[C@H]2[C@@H]3CC=C4c5sc(Nc6ccc(F)cc6F)nc5CC[C@]4(C)[C@H]3CC[C@@]21C |  | 5.80 | Active | 5.74 |  |  |  | 100 | 100 |  | Active | Active | Active |  |  |  | Active | 5.72 | 5.62 | 5.60 | inhibition at 6 µM (SK-MEL-28 [36]): 100%; inhibition at 6 µM (SK-MEL-28 [37]): 100%; inhibition at 3 µM (SK-MEL-28 [38]): 100%; Activity (SK-MEL-28 [24]): Active; inhibition (B16-F10 [39]): Active; inhibition at 3 µM (SK-MEL-28 [40]): 100%; inhibition (SK-MEL-28 [41]): Active; inhibition (SK-MEL-28 [42]): Active; inhibition (SK-MEL-28 [30]): Active; Activity (B16-F10 [35]): Active
C#C[C@]1(O)CC[C@H]2[C@@H]3CC=C4c5sc(-c6cccc(O)c6)nc5CC[C@]4(C)[C@H]3CC[C@@]21C |  | 5.39 |  | 5.22 |  |  |  |  |  |  |  |  |  |  |  |  |  | 5.46 | 5.18 | 5.54 | 
Cc1ccc(Nc2nc3c(s2)C2=CC[C@@H]4[C@H](CC[C@]5(C)C(=O)CC[C@@H]45)[C@@]2(C)CC3)c(C)c1 |  | 5.44 |  | 5.72 |  |  |  |  |  |  |  |  |  |  |  |  |  | 5.18 | 5.36 | 5.21 | 
C[C@]12CCc3nc(Nc4cccc(O)c4)sc3C1=CC[C@@H]1[C@@H]2CC[C@]2(C)C(=O)CC[C@@H]12 |  | 5.66 |  | 4.90 |  |  |  |  |  |  |  |  |  |  |  |  |  | < 4.70 | 5.32 | 5.17 | 
